Measured values published in PMC10123561 (Signal Transduction and Targeted Therapy, 2023).
Where “and” joins values, the source holds several entries; their conditions need not be identical. Equal entries are not always repeated. Structures can show the parent of a compound that is named as a salt.

Tests used:
[1] = tested on: SARS-CoV-2 Delta; assay type: cell-based
[2] = tested on: SARS-CoV-2 Omicron; assay type: cell-based

Row | Structure (SMILES) | EC50 [1] | EC50 [2]
1 | Cc1c(O)cccc1C(=O)N[C@@H](CSc1ccccc1)[C@H](O)CN1C[C@H]2CCCC[C@H]2C[C@H]1C(=O)NC(C)(C)C [nelfinavir, Nelfinavir Mesylate] | 2090 nM and 1760 nM | 2030 nM and 1730 nM
2 | CCC(CC)COC(=O)[C@H](C)N[P@](=O)(OC[C@H]1O[C@@](C#N)(c2ccc3c(N)ncnn23)[C@H](O)[C@@H]1O)Oc1ccccc1 [Remdesivir] | 850 nM and 1110 nM | 1500 ± 200 nM
